Experimental data reported in ChEMBL document CHEMBL1909046, “DrugMatrix in vitro pharmacology data”.

Legend:
[1] = DRUGMATRIX: Imidazoline I2, Central radioligand binding (ligand: [3H] Idazoxan); type: cell membranes, Rattus norvegicus, Wistar, Cerebral cortex, Membrane; settings: Not Active = under 50% inhibition at 10 µM
D(4) dopamine receptor = biological target: T1, D(4) dopamine receptor (Homo sapiens, UniProt P21917); assay: DRUGMATRIX: Dopamine D4.2 radioligand binding (ligand: [3H] Spiperone); type: cell membranes, CHO-K1, Membrane; settings: cho-k1; Not Active = under 50% inhibition at 10 µM
T1 sequence (P21917 whole entry): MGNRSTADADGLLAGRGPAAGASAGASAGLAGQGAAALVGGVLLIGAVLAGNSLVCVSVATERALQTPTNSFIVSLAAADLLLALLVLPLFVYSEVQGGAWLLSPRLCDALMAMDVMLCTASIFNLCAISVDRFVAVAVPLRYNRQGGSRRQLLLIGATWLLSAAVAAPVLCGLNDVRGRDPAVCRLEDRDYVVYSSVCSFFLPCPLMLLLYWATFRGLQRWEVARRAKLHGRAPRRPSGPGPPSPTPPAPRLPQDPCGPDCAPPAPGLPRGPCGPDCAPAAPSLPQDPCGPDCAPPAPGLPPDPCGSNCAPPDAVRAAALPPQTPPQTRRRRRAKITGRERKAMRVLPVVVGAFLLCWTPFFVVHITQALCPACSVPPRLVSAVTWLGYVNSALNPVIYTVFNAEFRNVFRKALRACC

[2] = biological target: Matrix metalloproteinase-9 (Homo sapiens, UniProt P14780); assay: biochemical; type: cell-based;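 note: inhibition of isolated MMP-9 enzyme activity toward a synthetic peptide substrate, from the DrugMatrix protease screening panel; in other assays of this panel Not Active means under 50% inhibition at 10 µM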
B2 bradykinin receptor = biological target: T2, B2 bradykinin receptor (Homo sapiens, UniProt P30411); type: cell membranes, Membrane; settings: chem-1; note: in other assays of this panel Not Active means under 50% inhibition at 10 µM
T2 sequence (P30411 whole entry): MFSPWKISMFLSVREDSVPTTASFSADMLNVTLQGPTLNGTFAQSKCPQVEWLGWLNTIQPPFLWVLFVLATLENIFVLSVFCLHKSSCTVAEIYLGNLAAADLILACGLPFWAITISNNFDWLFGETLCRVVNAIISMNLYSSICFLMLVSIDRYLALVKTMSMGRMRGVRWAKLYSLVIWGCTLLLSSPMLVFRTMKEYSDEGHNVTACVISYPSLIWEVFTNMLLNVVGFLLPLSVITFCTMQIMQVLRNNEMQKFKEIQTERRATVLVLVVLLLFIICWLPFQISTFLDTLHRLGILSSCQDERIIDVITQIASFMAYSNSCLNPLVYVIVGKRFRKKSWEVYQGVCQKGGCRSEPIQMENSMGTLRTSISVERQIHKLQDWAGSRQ

Substance-P receptor = Substance-P receptor (Homo sapiens, UniProt P25103); type: cell membranes, CHO, Membrane; settings: cho; note: in other assays of this panel Not Active means under 50% inhibition at 10 µM
[3] = DRUGMATRIX: Platelet-Derived Growth Factor (PDGF) radioligand binding (ligand: [125I] PDGF); type: cell-based; settings: nih3t3; Not Active = under 50% inhibition at 10 µM
[4] = biological target: Mitogen-activated protein kinase 3 (Homo sapiens, UniProt P27361); assay: DRUGMATRIX: Protein Serine/Threonine Kinase, ERK1 enzyme inhibition (substrate: Myelin Basic Protein); design: species or system Escherichia coli; settings: Not Active = under 50% inhibition at 10 µM
Chain of Mitogen-activated protein kinase 3 (P27361 whole entry): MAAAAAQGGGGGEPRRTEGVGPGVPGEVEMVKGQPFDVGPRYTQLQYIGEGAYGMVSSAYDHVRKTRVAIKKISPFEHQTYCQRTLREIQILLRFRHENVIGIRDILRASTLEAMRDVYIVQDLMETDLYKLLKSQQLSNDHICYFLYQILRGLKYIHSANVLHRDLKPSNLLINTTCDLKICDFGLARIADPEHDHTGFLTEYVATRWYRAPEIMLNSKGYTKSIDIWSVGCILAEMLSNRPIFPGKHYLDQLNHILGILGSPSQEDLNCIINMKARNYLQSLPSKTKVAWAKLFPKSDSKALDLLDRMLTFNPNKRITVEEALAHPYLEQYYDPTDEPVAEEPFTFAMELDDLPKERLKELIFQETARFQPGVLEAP

Chain of Substance-P receptor (P25103 whole entry): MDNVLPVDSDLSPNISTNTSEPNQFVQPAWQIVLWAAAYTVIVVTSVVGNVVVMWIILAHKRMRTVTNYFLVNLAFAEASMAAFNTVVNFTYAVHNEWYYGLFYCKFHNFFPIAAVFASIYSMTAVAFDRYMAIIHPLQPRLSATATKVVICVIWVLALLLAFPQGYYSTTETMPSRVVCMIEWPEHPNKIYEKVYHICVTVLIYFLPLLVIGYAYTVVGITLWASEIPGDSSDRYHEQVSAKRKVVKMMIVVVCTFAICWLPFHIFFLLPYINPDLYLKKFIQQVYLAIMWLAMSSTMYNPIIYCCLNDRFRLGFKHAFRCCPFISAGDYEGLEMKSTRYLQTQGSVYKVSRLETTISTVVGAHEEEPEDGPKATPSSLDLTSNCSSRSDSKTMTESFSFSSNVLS
Chain of Matrix metalloproteinase-9 (P14780 whole entry): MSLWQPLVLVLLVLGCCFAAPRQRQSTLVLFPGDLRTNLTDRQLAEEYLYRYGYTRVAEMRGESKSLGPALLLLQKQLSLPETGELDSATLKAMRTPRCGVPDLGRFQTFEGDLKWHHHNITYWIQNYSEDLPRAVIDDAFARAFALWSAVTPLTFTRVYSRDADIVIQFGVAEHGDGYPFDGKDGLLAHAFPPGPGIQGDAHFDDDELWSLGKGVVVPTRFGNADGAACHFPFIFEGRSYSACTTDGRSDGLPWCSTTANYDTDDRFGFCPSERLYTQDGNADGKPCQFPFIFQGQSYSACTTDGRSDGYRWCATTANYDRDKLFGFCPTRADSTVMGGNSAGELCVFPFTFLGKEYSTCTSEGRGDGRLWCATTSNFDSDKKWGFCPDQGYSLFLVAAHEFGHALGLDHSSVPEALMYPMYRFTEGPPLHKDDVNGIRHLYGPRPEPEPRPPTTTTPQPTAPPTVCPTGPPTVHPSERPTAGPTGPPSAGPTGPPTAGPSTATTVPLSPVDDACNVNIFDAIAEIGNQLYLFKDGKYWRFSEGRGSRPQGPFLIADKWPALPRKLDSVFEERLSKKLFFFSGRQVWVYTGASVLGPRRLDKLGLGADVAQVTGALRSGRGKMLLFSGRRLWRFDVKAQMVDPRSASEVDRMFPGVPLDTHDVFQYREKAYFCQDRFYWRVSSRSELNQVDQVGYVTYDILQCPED

Row | SMILES | IC50 [1] | Ki [1] | IC50 (D(4) dopamine receptor) | IC50 [2] | IC50 (B2 bradykinin receptor) | IC50 (Substance-P receptor) | IC50 [3] | Ki [3] | IC50 [4] | IC50 ([1]; read-out: IC50) | Ki ([1]; read-out: Ki)
1 | O=C(c1ccccc1C(F)(F)F)N1CCC(Cc2ccccc2)CC1 | Not Active | Not Active | Not Active | Not Active | Not Active | Not Active | Not Active | Not Active | Not Active |  | 
2 | O=C/C=C/c1ccccc1 | Not Active | Not Active | Not Active | Not Active | Not Active | Not Active | Not Active | Not Active | Not Active |  | 
3 | Nc1ccc2c3c(cccc13)C(=O)NC2=O | Not Active | Not Active | Not Active | Not Active | Not Active | Not Active | Not Active | Not Active | Not Active |  | 
4 | COc1ccc(C(=O)N2CCCC2=O)cc1 | Not Active | Not Active | Not Active | Not Active | Not Active | Not Active | Not Active | Not Active | Not Active |  | 
5 | O=c1cnn([C@@H]2O[C@H](CO)[C@@H](O)[C@H]2O)c(=O)[nH]1 [6-AZAURIDINE] | Not Active | Not Active | Not Active | Not Active | Not Active | Not Active | Not Active | Not Active | Not Active |  | 
6 | CC[C@H](C)[C@H]1O[C@]2(C=C[C@@H]1C)C[C@@H]1C[C@@H](C/C=C(\C)[C@@H](O[C@H]3C[C@H](OC)[C@@H](O[C@H]4C[C@H](OC)[C@@H](O)[C@H](C)O4)[C@H](C)O3)[C@@H](C)/C=C/C=C3\CO[C@@H]4[C@H](O)C(C)=C[C@@H](C(=O)O1)[C@]34O)O2.CO[C@H]1C[C@H](O[C@H]2[C@H](C)O[C@@H](O[C@@H]3/C(C)=C/C[C@@H]4C[C@@H](C[C@]5(C=C[C@H](C)[C@@H](C(C)C)O5)O4)OC(=O)[C@@H]4C=C(C)[C@@H](O)[C@H]5OC/C(=C\C=C\[C@@H]3C)[C@]54O)C[C@@H]2OC)O[C@@H](C)[C@@H]1O [ABAMECTIN] | Not Active | Not Active | Not Active | Not Active | Not Active | Not Active | Not Active | Not Active | Not Active |  | 
7 | NCCCC(O)(P(=O)(O)O)P(=O)(O)O [ALENDRONIC ACID] | Not Active | Not Active | Not Active | Not Active | Not Active | Not Active | Not Active | Not Active | Not Active |  | 
8 | Cc1nnc2n1-c1ccc(Cl)cc1C(c1ccccc1)=NC2 [ALPRAZOLAM] | Not Active | Not Active | Not Active | Not Active | Not Active | Not Active | Not Active | Not Active | Not Active |  | 
9 | Cn1c(=O)c2[nH]cnc2n(C)c1=O.Cn1c(=O)c2[nH]cnc2n(C)c1=O.NCCN [AMINOPHYLLINE] | Not Active | Not Active | Not Active | Not Active | Not Active | Not Active | Not Active | Not Active | Not Active |  | 
10 | CCC1(CCC(C)C)C(=O)NC(=O)NC1=O [AMOBARBITAL] | Not Active | Not Active | Not Active | Not Active | Not Active | Not Active | Not Active | Not Active | Not Active |  | 
11 | CC1(C)S[C@@H]2[C@H](NC(=O)[C@H](N)c3ccccc3)C(=O)N2[C@H]1C(=O)O [AMPICILLIN] | Not Active | Not Active | Not Active | Not Active | Not Active | Not Active | Not Active | Not Active | Not Active |  | 
12 | COc1ccc(C2C(=O)c3ccccc3C2=O)cc1 [ANISINDIONE] | Not Active | Not Active | Not Active | Not Active | Not Active | Not Active | Not Active | Not Active | Not Active |  | 
13 | O=C1O[C@H]([C@@H](O)CO)C(O)=C1O [ASCORBIC ACID] | Not Active | Not Active | Not Active | Not Active | Not Active | Not Active | Not Active | Not Active | Not Active |  | 
14 | CN1[C@@H]2CC[C@H]1C[C@@H](OC(=O)C(CO)c1ccccc1)C2 (stereo not given in full) [ATROPINE] | Not Active | Not Active | Not Active | Not Active | Not Active | Not Active | Not Active | Not Active | Not Active |  | 
15 | CC(C(=O)O)c1ccc2oc(-c3ccc(Cl)cc3)nc2c1 (stereo not given) [BENOXAPROFEN] | Not Active | Not Active | Not Active | Not Active | Not Active | Not Active | Not Active | Not Active | Not Active |  | 
16 | COc1ccc2cc3[n+](cc2c1OC)CCc1cc2c(cc1-3)OCO2.[Cl-] [BERBERINE CHLORIDE] |  |  | Not Active | Not Active | Not Active | Not Active | Not Active | Not Active | Not Active | 1280 nM | 852 nM
17 | O=C(O)CCNC(=O)c1ccccc1 [BETAMIPRON] | Not Active | Not Active | Not Active | Not Active | Not Active | Not Active | Not Active | Not Active | Not Active |  | 
18 | CC(=O)Oc1ccc(C(c2ccc(OC(C)=O)cc2)c2ccccn2)cc1 [BISACODYL] | Not Active | Not Active | Not Active | Not Active | Not Active | Not Active | Not Active | Not Active | Not Active |  | 
19 | Cc1cc2c(OCC(CNC(C)(C)C)OC(=O)c3ccccc3)cccc2[nH]1 (stereo not given) [BOPINDOLOL] | Not Active | Not Active | Not Active | Not Active | Not Active | Not Active | Not Active | Not Active | Not Active |  | 
20 | Brc1c(NC2=NCCN2)ccc2nccnc12 [BRIMONIDINE] |  |  | Not Active | Not Active | Not Active | Not Active | Not Active | Not Active | Not Active | 74 nM | 49 nM
21 | CN(C)[C@@H]1C(O)=C(C(N)=O)C(=O)[C@@]2(O)C(O)=C3C(=O)c4c(O)ccc(Cl)c4[C@@](C)(O)[C@H]3C[C@@H]12 [CHLORTETRACYCLINE] | Not Active | Not Active | Not Active | Not Active | Not Active | Not Active | Not Active | Not Active | Not Active |  | 
22 | CN/C(=N\CCSCc1nc[nH]c1C)NC#N [CIMETIDINE] | Not Active | Not Active | Not Active | Not Active | Not Active | Not Active | Not Active | Not Active | Not Active |  | 
23 | COc1cc(N)c(Cl)cc1C(=O)NC1CCN(CCCOc2ccc(F)cc2)CC1OC (stereo not given) [CISAPRIDE] | Not Active | Not Active | Not Active | Not Active | Not Active | Not Active | Not Active | Not Active | Not Active |  | 
24 | CCC(=O)O[C@]1(C(=O)CCl)[C@@H](C)C[C@H]2[C@@H]3CCC4=CC(=O)C=C[C@]4(C)[C@@]3(F)[C@@H](O)C[C@@]21C [CLOBETASOL PROPIONATE] | Not Active | Not Active | Not Active | Not Active | Not Active | Not Active | Not Active | Not Active | Not Active |  | 
25 | O=C1CN=C(c2ccccc2Cl)c2cc([N+](=O)[O-])ccc2N1 [CLONAZEPAM] | Not Active | Not Active | Not Active | Not Active | Not Active | Not Active | Not Active | Not Active | Not Active |  | 
